Assay [1] relates to HIV-1 reverse transcriptase, recovered from plasma of HIV-1 infected patients. Description: ExaVir Drug susceptibility assay (RT-based phenotypic), RT recovered from patient plasma. The format is biochemical. As to the method:
Lysates containing intraviral RT were recovered from plasma using ExaVir Load, version 3 (Cavidi, Uppsala, Sweden). Briefly, virions from up to 1 ml plasma were bound to an ion exchange gel, washed, and the RT was extracted by lysing the purified virions. The RT was used to catalyse the incorporation of bromodeoxyuridine triphosphate (BrdUTP) into DNA via a poly-rA (ribodenylic acid template) plate. The amount of BrdU monophosphate (BrdUMP) incorporated into DNA was detected with an alkaline phosphatase (Ap) conjugated anti-BrdU monoclonal antibody. The Ap substrate para-nitrophenyl-diphosphate was used for colorimetric detection. […] The RT activity at each drug concentration was recalculated into percentage of RT activity in the absence of drug. The IC50 values were calculated using the median effect equation [23]. […] In the present study, two reference recombinant RTs, BH10-wild-type and its mutant form L100I, were analysed together with patient samples in each assay. The results of the phenotypic tests were evaluated independently by two persons (E.A, C.FR.K).

Assay [2] has as its target HIV-1 reverse transcriptase, recovered from plasma of HIV-1 infected patients. Also on record: method as in PMID 23364785. Conditions: cited from earlier work.

Read-outs that look alike come from different tables or passages of the source.

For the compound `Cc1cc(C#N)cc(C)c1Oc1nc(Nc2ccc(C#N)cc2)nc(N)c1Br` [ETR, 4-[[6-amino-5-bromo-2[(4-cyanophenyl)amino]-4-pyrimidinyl]oxy]-3.5-dimethylbenzonitrile], the “result of phenotypic assay” value was “sensitive” in assay [1] (patient 4, K103R mutation, NNRTI-naïve); “No phenotypic resistance” in assay [1] (patients/samples 7, 11b, 15, 9a and 12, NNRTI stopped earlier). Besides, the IC50 – broadly, the concentration needed to halve the response being measured – in assay [1] (read-out: IC50 to ETR, mean ±SD, ten samples considered sensitive (3a, 4, 7, 9a, 11b, 12, 15, 16, 17, 18)) was 3.1 ± 1.3 µM; in assay [1] (read-out: IC50 to ETR, range, six samples with decreased susceptibility (1, 9b, 10, 11a, 19, 20)), 6.4 to 13.6 µM; in assay [1] (read-out: IC50 to ETR, patient sample 1), 11.8 µM; in assay [1] (read-out: IC50 to ETR, patient sample 2), greater than 100 µM; in assay [1] (read-out: IC50 to ETR, patient sample 3b) it was greater than 100 µM; in assay [1] (read-out: IC50 to ETR, patient sample 6), greater than 100 µM. The IC50 in assay [1] (read-out: IC50 to ETR, patient sample 8a) is greater than 100 µM; in assay [1] (read-out: IC50 to ETR, patient sample 8b), greater than 100 µM; in assay [1] (read-out: IC50 to ETR, patient sample 9b), 9.2 µM; in assay [1] (read-out: IC50 to ETR, patient sample 10), 13.6 µM; in assay [1] (read-out: IC50 to ETR, patient sample 11a), 7.3 µM; in assay [1] (read-out: IC50 to ETR, patient sample 19), 6.4 µM. For the same compound, the 50% inhibitory concentration (IC50) in assay [1] (read-out: IC50 to ETR, patient sample 20) was 7.2 µM; in assay [2] (read-out: IC50 for ETR, mean ± SD (reproducibility analysis, first value), not influenced by RT amount within 40–828 fg/ml RT) it was 1.6 ± 0.03 µM; in assay [2] (read-out: IC50 for ETR, mean ± SD (reproducibility analysis, second value), not influenced by RT amount within 40–828 fg/ml RT) it was 3.1 ± 0.04 µM; in assay [2] (read-out: IC50 for RT activity in the presence of ETR, mean ±SD, treatment-naïve patients and reference recombinant RTs), 2.5 ± 1 µM.
